The assay deals with Isolated Rat Bladder Strips. Description: Inhibition of contractions in isolated rat bladder strips (KCl-enhanced contractile activity; smooth muscle relaxation). The format is cell-based, Sprague-Dawley rats. To be noted: for IC50 / percent contraction at 30 µM: 0.5 h; for IC50: isolated rat bladder strips, 15 mM additional KCl, 30 minute challenge, read-out: IC50 (50% inhibition of pre-drug contractile activity); for inhibition at 30 µM / percent contraction at 30 µM: Rattus norvegicus; for inhibition at 30 µM: read-out: Percent inhibition at 30 μM (I); for percent contraction at 30 µM: read-out: Percent contraction at 30 μM (C). From the text: The smooth muscle relaxing activity of the compounds of this invention was established in accordance with standard pharmaceutically accepted test procedures with representative compounds as follows:
Sprague-Dawley rats (150-200 g) are rendered unconscious by CO2 asphyxiation and then euthanized by cervical dislocation. The bladder is removed into warm (37 deg.C) physiological salt solution (PSS) of the following composition (mM): NaCl, 118.4; KCl, 4.7; CaCl2, 2.5; MgSO4, 4.7; H2 O, 1,2; NaHCO3, 24.9; KH2 PO4, 1,2; glucose, 11.1; EDTA, 0.023; gassed with […]; pH 7.4. The bladder is opened and then dut into strips 1-2 mm in width and 7-10 mm in length. The strips are subsequently suspended in a 10 mL tissue bath under an initial resting tension of 1.5 g. The strips are held in place by two surgical clips one of which is attached to a fixed hook while the other is attached to an isometric force transducer. […] The carbachol is then washed out and the tissue allowed to relax to its resting level of activity. Following a further 30 min period of recovery an additional 15 mM KCl are introduced into the tissue bath. This increase in KCl concentration results in a large increase in the amplitude of spontaneous contractions (and initiation of contractions in previously quiescent strips) superimposed upon a small increase in basal tone. Following stabilization of this enhanced level of contractile activity, incremental increases in the concentration of test compound or vehicle are introduced into the tissue bath. Contractile activity is measured for each compound or vehicle concentration during the last minute of a 30 minute challenge.
The isometric force developed by the bladder strips is measured using a […] to elicit 50% inhibition of pre-drug contractile activity (IC50 concentration) and is calculated from this concentration-response curve.

As for `CCc1cccc(C)c1CNc1c(NC(C)(C)C)c(=O)c1=O` [Example 58, 3-tert-Butylamino-4-(2-ethyl-6-methyl-benzylamino)-cyclobut-3-ene-1,2-dione], the IC50 amounted to 2.3 ± 0.24 µM and the inhibition at 30 µM turned out to be 25%. In the case of `CCC(C)(C)Nc1c(NCc2cc(Cl)ccc2Cl)c(=O)c1=O` [Example 83, 3-(2.5-Dichloro-benzylamino)-4-(1,1-dimethyl-propylamino)-cyclobut-3-ene-1,2-dione], the IC50 was determined as 0.81 ± 0.32 µM. Still for that read-out and setting: next, `CC(C)(C)Nc1c(NCc2ccc(C#N)c(Cl)c2)c(=O)c1=O` [Example 43, 4-[(2-tert-Butylamino-3,4-dioxo-cyclobut-1-enylamino)-methyl]-2-chloro-benzonitrile]: 1.1 ± 0.1 µM; `COc1cccc(CNc2c(NC(C)(C)C)c(=O)c2=O)c1OC` [Example 20, 3-tert-Butylamino-4-(2,3-dimethoxy-benzylamino)-cyclobut-3-ene-1,2-dione]: 8.6 ± 3.5 µM. Same read-out and setting: next, `Cc1cc(C#N)ccc1CNc1c(N[C@H](C)C(C)(C)C)c(=O)c1=O` [Example 55, 4-{[3,4-Dioxo-2-(1,2,2-trimethyl-propylamino)-cyclobut-1-enylamino]-methyl}-3-methyl-benzonitrile]: 1.5 ± 0.4 µM; `CCCC(=O)N(Cc1ccc(C#N)cc1Cl)c1c(NC(C)(C)C)c(=O)c1=O` [Example 101]: 2.36 ± 1.6 µM; `CCC(C)(C)Nc1c(NCc2cc(C)cc(C#N)c2)c(=O)c1=O` [Example 7, 3-([2-(1,1-Dimethyl-propylamino)-3,4-dioxo-cyclobut-1-enylamino]-methyl)-5-methyl-benzonitrile]: 0.86 ± 0.27 µM. On to `CCC(CC)Nc1c(NCc2cc(C)cc(C#N)c2)c(=O)c1=O` [Example 13, 3-{[2-(1-Ethyl-propylamino)-3,4-dioxo-cyclobut-1-enylamino]-methyl}-5-methyl-benzonitrile], for which the inhibition at 30 µM worked out at 19.1 ± 1.7%. For the molecule `CCC(C)(C)Nc1c(N(Cc2ccc(C#N)cc2Cl)C(C)=O)c(=O)c1=O` [Example 77, N-(2-Chloro-4-cyano-benzyl)-N-[2-(1,1-dimethyl-propylamino)-3,4-dioxo-cyclobut-1-enyl)-acetamide], the 50% inhibitory concentration (IC50) was determined as 2.2 ± 0.95 µM and the inhibition at 30 µM turned out to be 25%. As to `CC(C)(C)Nc1c(NCc2ccc(F)c(Cl)c2)c(=O)c1=O` [Example 67, 3-tert-Butylamino-4-(3-chloro-4-fluoro-benzylamino)-cyclobut-3-ene-1,2-dione], the IC50 is 5.3 ± 1.2 µM and the inhibition at 30 µM came to 47.7%. With `CC(Nc1c(NCc2ccc(C#N)cc2Cl)c(=O)c1=O)C(C)(C)F` (centres unmarked) [Example 75, 3-Chloro-4-{[2-(2-fluoro-1,2-dimethyl-propylamino)-3,4-dioxo-cyclobut-1-enylamino]-methyl)-benzonitrile], the IC50 was found to be 1.59 ± 0.27 µM. Same read-out and setting: next, `CCC(C)(C)Nc1c(NCc2c(C)cccc2C)c(=O)c1=O` [Example 53, 3-(2,6-Dimethyl-benzylamino)-4-(1,1-dimethyl-propylamino)-cyclobut-3-ene-1,2-dione]: 0.83 ± 0.66 µM.

In the case of `CC(C)(C)Nc1c(NCc2cc(F)cc(C(F)(F)F)c2)c(=O)c1=O` [Example 72, 3-tert-Butylamino-4-(3-fluoro-5-trifluoromethyl-benzylamino)-cyclobut-3-ene-1,2-dione], the IC50 stood at 6.5 ± 3.6 µM. The same measure, in the same setting: as for `CC(C)(C)Nc1c(NCc2cccc(Cl)c2Cl)c(=O)c1=O` [Example 100, 3-(t-Butylamino)-4-(2,3-dichloro-benzylamino)-cyclobut-3-ene-1,2-dione], the figure is 1.24 ± 0.17 µM. Regarding `Cc1cccc(C)c1CNc1c(NCC(F)(F)C(F)(F)F)c(=O)c1=O` [Example 54, 3-(2,6-Dimethyl-benzylamino)-4-(2,2,3,3,3-pentafluoro-propylamino)-cyclobut-3-ene-1,2-dione], the IC50 was found to be 17.8 µM and the inhibition at 30 µM was found to be 46%.

`CCC(C)(C)Nc1c(NCc2ccc(C)c(Cl)c2)c(=O)c1=O` [Example 91, 3-(3-Chloro-4-methyl-benzylamino)-4-(1,1-dimethyl-propylamino)-cyclobut-3-ene-1,2-dione]: the inhibition at 30 µM stood at 30.7 ± 6.7%.

As for `CC(C)(CO)Nc1c(NCc2ccc(C#N)cc2Cl)c(=O)c1=O` [Example 93, 3-Chloro-4-{[2-(2-hydroxy-1,1-dimethyl-ethylamino)-3,4-dioxo-cyclobut-1-enylamino]-methyl}-benzonitrile], the IC50 is 8.1 ± 2 µM and the inhibition at 30 µM was determined as 44%. In the case of `CCC(C)(C)Nc1c(NCc2c(C)cc(Br)cc2C)c(=O)c1=O` [Example 37, 3-(4-Bromo-2,6-dimethyl-benzylamino)-4-(1,1-dimethyl-propylamino)-cyclobut-3-ene-1,2-dione], the IC50 worked out at 1.2 ± 1.1 µM. As for `CC(C)(C)Nc1c(NCc2ccc(F)c(F)c2)c(=O)c1=O` [Example 68, 3-tert-Butylamino-4-(3,4-difluoro-benzylamino)-cyclobut-3-ene-1,2-dione], the IC50 is 2.2 ± 0.8 µM. In the case of `Cc1cc(C)c(CNc2c(NC(C)(C)C)c(=O)c2=O)c(C)c1` [Example 9, 3-tert-Butylamino-4-(2,4,6-trimethyl-benzylamino)-cyclobut-3-ene-1,2-dione], the IC50 was 1.8 ± 0.7 µM. On the same count and under the same terms, next, `CC(C)(C)Nc1c(NCc2ccc(F)cc2C(F)(F)F)c(=O)c1=O` [Example 59, 3-tert-Butylamino-4-(4-fluoro-2-trifluoromethyl-benzylamino)-cyclobut-3-ene-1,2-dione]: 1.8 ± 0.6 µM. In the case of `CCC(C)(C)Nc1c(NCc2cc(C)cc(C)c2)c(=O)c1=O` [Example 87, 3-(3.5-Dimethyl-benzylamino)-4-(1,1-dimethyl-propylamino)-cyclobut-3-ene-1,2-dione], the inhibition at 30 µM is 13.6 ± 8.4%. For `CCC(C)(C)Nc1c(NCc2ccc(C#N)c(Cl)c2)c(=O)c1=O` [Example 44, 2-Chloro-4-{[2-(1,1-dimethyl-propylamino]-3,4-dioxo-cyclobut-1-enylamino)-methyl}-benzonitrile], the IC50 was found to be 0.26 ± 0.015 µM. In the case of `CCCC(=O)N(Cc1ccc(C#N)cc1Cl)c1c(NC(C)(C)CC)c(=O)c1=O` [Example 78], the IC50 is 2.8 ± 1.3 µM, the percent contraction at 30 µM came out at 28.5 ± 8.7% and the inhibition at 30 µM turned out to be 18 ± 6.5%. For the molecule `CCc1cc(C#N)ccc1CNc1c(NC(C)C)c(=O)c1=O` [Example 25], the IC50 is 31 ± 4.5 µM. Still for that read-out and setting: as for `CCC(C)(C)Nc1c(NCc2cc(C)ccc2C)c(=O)c1=O` [Example 94, 3-(2,5-Dimethyl-benzylamino)-4-(1,1-dimethyl-propylamino)-cyclobut-3-ene-1,2-dione], the figure is 1.91 ± 0.84 µM.

As to `COc1cccc(C)c1CNc1c(N[C@H](C)C(C)(C)C)c(=O)c1=O` [Example 57, 3-(2-Methoxy-6-methyl-benzylamino)-4-(1,2,2-trimethyl-propylamino)-cyclobut-3-ene-1,2-dione], the percent contraction at 30 µM was found to be 160% and the inhibition at 30 µM was 29.3 ± 2.3%.

For the molecule `CCC(CC)Nc1c(NCc2ccc(OC)c(OC)c2)c(=O)c1=O` [Example 14, 3-(3,4-Dimethoxy-benzylamino)-4-(1-ethyl-propylamino)-cyclobut-3-ene-1,2-dione], the percent contraction at 30 µM was 54% and the inhibition at 30 µM was determined as 27.2 ± 2.4%.

For the molecule `Cc1cc(C)cc(CNc2c(NC(C)(C)C)c(=O)c2=O)c1` [Example 86, 3-tert-Butylamino-4-(3,5-dimethyl-benzylamino)-cyclobut-3-ene-1,2-dione], the IC50 came out at 5.1 ± 0.96 µM.

As usually defined, the IC50 is the concentration that inhibits the measured activity by half. As a reminder, the inhibition is the drop in the measured response relative to a control, in per cent.

The values above are taken from patent US5780505A, “Substituted N-arylmethylamino derivatives of cyclobutene-3, 4-diones” (American Home Products Corporation, priority 1997, dated 1998).
